Measured values published in patent US20070128217A1 (priority 2003, published 2007).

What was measured:
[1] = test system: control sera (pooled serum of ten healthy LUMC hospital workers; commercial negative donor pooled serum from the Dutch bloodbank); format: binding, human; parameters: Binding of Control serum LUMC to linear peptides / Binding of Control serum Blood-bank to linear peptides / Binding of Control serum LUMC to looped peptides / Binding of Control Serum Blood-Bank to Looped peptides / Binding of Control serum LUMC to linear peptides of the protein M of SARS-CoV Urbani / Binding of Control serum Blood-bank to linear peptides of the protein M of SARS-CoV Urbani / Binding of Control serum LUMC to looped peptides of the protein M of SARS-CoV Urbani / Binding of Control Serum Blood-Bank to Looped peptides of the protein M of SARS-CoV Urbani: unit not given here
[2] = test system: rabbit serum obtained by immunizing a rabbit with the SARS-CoV strain Frankfurt 1; format: binding; parameters: Binding of a rabbit serum to linear peptides / Binding of a rabbit serum to looped peptides / Rabbit serum linear peptides / Rabbit serum looped peptides / Binding of a rabbit serum to linear peptides of protein N of SARS-CoV Urbani (Rabbit serum linear peptides) / Binding of a rabbit serum to looped/cyclic peptides of protein N of SARS-CoV Urbani (Rabbit serum looped peptides): unit not given here
[3] = test system: recombinant human anti-SARS-CoV antibody 03-018; format: binding; parameters: Binding of antibody 03-018 to linear peptides of the N protein of SARS-CoV Urbani / Binding of antibody 03-018 to looped/cyclic peptides of the N protein of SARS-CoV Urbani: unit not given here
[4] = test system: antibodies in sera from SARS patients (sera 1a, 1b, 2, 6, 37, 62, London, SARS-yellow, SARS-green); format: binding, human; parameters: Binding of serum 6 to linear peptides of protein X1 of SARS-CoV Urbani / Binding of serum 37 to linear peptides of protein X1 of SARS-CoV Urbani / Binding of serum 6 to looped/cyclic peptide (PEPSCAN-ELISA) / Binding of serum 37 to looped/cyclic peptide (PEPSCAN-ELISA) / Binding of serum 37 to looped/cyclic peptides of protein X1 of SARS-CoV Urbani / Binding of serum 6 to linear peptides of protein X2 / Binding of serum 37 to linear peptides of protein X2 / Binding of serum 37 to looped/cyclic peptides of protein X2 of SARS-CoV Urbani / Binding of serum 6 to linear peptides of protein M of SARS-CoV Urbani / Binding of serum 37 to linear peptides of protein M of SARS-CoV Urbani / Binding of serum 6 to looped/cyclic peptides of protein M of SARS-CoV Urbani / Binding of serum 37 to looped/cyclic peptides of protein M of SARS-CoV Urbani / Binding of serum 6 to linear peptides of protein X3 of SARS-CoV Urbani / Binding of serum 37 to linear peptides of protein X3 of SARS-CoV Urbani / Binding of serum 37 to looped/cyclic peptides of protein X3 of SARS-CoV Urbani / Binding of serum 6 to linear peptides of protein X4 of SARS-CoV Urbani / Binding of serum 37 to linear peptides of protein X4 of SARS-CoV Urbani / Binding of serum 37 to looped/cyclic peptides of protein X4 of SARS-CoV Urbani / Binding of serum 6 to linear peptides of protein X5 of SARS-CoV Urbani / Binding of serum 37 to linear peptides of protein X5 of SARS-CoV Urbani / Binding of serum 37 to looped/cyclic peptides of protein X5 of SARS-CoV Urbani / Binding of serum 6 to linear peptides of protein N of SARS-CoV Urbani / Binding of serum 37 to linear peptides of protein N of SARS-CoV Urbani / Binding of serum 6 to linear peptide (PEPSCAN-ELISA) / Binding of serum 1a to looped/cyclic peptides of protein N of SARS-CoV Urbani / Binding of serum 1b to looped/cyclic peptides of protein N of SARS-CoV Urbani / Binding of serum 2 to looped/cyclic peptides of protein N of SARS-CoV Urbani / Binding of serum 6 to looped/cyclic peptides of protein N of SARS-CoV Urbani / Binding of serum 37 to looped/cyclic peptides of protein N of SARS-CoV Urbani / Binding of serum 62 to looped/cyclic peptides of protein N of SARS-CoV Urbani / Binding of serum London to looped/cyclic peptides of protein N of SARS-CoV Urbani / Binding of serum SARS-green to looped/cyclic peptides of protein N of SARS-CoV Urbani: unit not given here

Sequence	Binding of a rabbit serum to linear peptides of protein N of SARS-CoV Urbani (Rabbit serum linear peptides) [2]	Binding of a rabbit serum to looped/cyclic peptides of protein N of SARS-CoV Urbani (Rabbit serum looped peptides) [2]	Binding of antibody 03-018 to linear peptides of the N protein of SARS-CoV Urbani [3]	Binding of antibody 03-018 to looped/cyclic peptides of the N protein of SARS-CoV Urbani [3]	Binding of serum 1a to linear peptides of protein N of SARS-CoV Urbani [4]	Binding of serum 1a to looped/cyclic peptides of protein N of SARS-CoV Urbani [4]	Binding of serum 1b to linear peptides of protein N of SARS-CoV Urbani [4]	Binding of serum 1b to looped/cyclic peptides of protein N of SARS-CoV Urbani [4]	Binding of serum 2 to linear peptides of protein N of SARS-CoV Urbani [4]	Binding of serum 2 to looped/cyclic peptides of protein N of SARS-CoV Urbani [4]	Binding of serum 6 to linear peptides of protein N of SARS-CoV Urbani [4]	Binding of serum 6 to looped/cyclic peptides of protein N of SARS-CoV Urbani [4]	Binding of serum 37 to linear peptides of protein N of SARS-CoV Urbani [4]	Binding of serum 37 to looped/cyclic peptides of protein N of SARS-CoV Urbani [4]	Binding of serum 62 to linear peptides of protein N of SARS-CoV Urbani [4]	Binding of serum 62 to looped/cyclic peptides of protein N of SARS-CoV Urbani [4]	Binding of serum London to linear peptides of protein N of SARS-CoV Urbani [4]	Binding of serum London to looped/cyclic peptides of protein N of SARS-CoV Urbani [4]	Binding of serum SARS-green to looped/cyclic peptides of protein N of SARS-CoV Urbani [4]	Binding of serum SARS-yellow to looped/cyclic peptides of protein N of SARS-CoV Urbani [4]	further results
SGTWLTYHGAIKLDD	0.1	0.5	0.1	0.2	0.2	0.8	0.1	0.5	0.1	0.7	0.1	0.4	0.7	1.0	0.5	1.2	0.6	0.8	1.8	1.6	Control Serum Blood-Bank Looped peptides [1]: 1.0; Control serum Blood-bank linear peptides [1]: 0.5; Control serum LUMC linear peptides [1]: 0.5; Control serum LUMC looped peptides [1]: 0.8; Binding of serum SARS-green to linear peptides of protein N of SARS-CoV Urbani [4]: 0.5; Binding of serum SARS-yellow to linear peptides of protein N of SARS-CoV Urbani [4]: 0.6
SKVSGKGQQQQGQTV	0.1	0.6	0.1	0.2		0.4		0.2		0.7		0.4		0.6		0.6		0.8	0.5	0.6	Binding of Control Serum Blood-Bank to Looped peptides [1]: 0.8; Binding of Control serum Blood-bank to linear peptides [1]: 0.6; Binding of Control serum LUMC to linear peptides [1]: 0.7; Binding of Control serum LUMC to looped peptides [1]: 0.8; Binding of serum 1a to linear peptide (PEPSCAN-ELISA) [4]: 0.2; Binding of serum 1b to linear peptide (PEPSCAN-ELISA) [4]: 0.1; Binding of serum 2 to linear peptide (PEPSCAN-ELISA) [4]: 0.3; Binding of serum 6 to linear peptide (PEPSCAN-ELISA) [4]: 0.1; Binding of serum 37 to linear peptide (PEPSCAN-ELISA) [4]: 0.5; Binding of serum 62 to linear peptide (PEPSCAN-ELISA) [4]: 0.6; Binding of serum London to linear peptide (PEPSCAN-ELISA) [4]: 0.5; Binding of serum SARS-green to linear peptide (PEPSCAN-ELISA) [4]: 0.3; Binding of serum SARS-yellow to linear peptide (PEPSCAN-ELISA) [4]: 0.7
SLPYGANKEGIVWVA	0.2	0.3	0.1	0.2	0.3	0.3	0.1	0.2	0.2	0.5	0.2	0.3	0.8	0.7	1.2	0.6	0.6	0.4	0.3	0.4	Binding of Control Serum Blood-Bank to Looped peptides [1]: 0.6; Binding of Control serum Blood-bank to linear peptides [1]: 0.9; Binding of Control serum LUMC to linear peptides [1]: 0.7; Binding of Control serum LUMC to looped peptides [1]: 0.6; Binding of serum SARS-green to linear peptides of protein N of SARS-CoV Urbani [4]: 0.5; Binding of serum SARS-yellow to linear peptides of protein N of SARS-CoV Urbani [4]: 0.7
SNQRSAPRITFGGPT	0.4	0.9			0.2	0.4	0.1	0.2	0.2	0.4	0.1	0.4	0.6	0.7	0.6	0.4	0.4	0.9	0.3	0.6	Binding of Control Serum Blood-Bank to Looped peptides [1]: 0.7; Binding of Control serum Blood-bank to linear peptides [1]: 0.6; Binding of Control serum LUMC to linear peptides [1]: 0.5; Binding of Control serum LUMC to looped peptides [1]: 0.7; Recognition of the peptide by antibody 03-018 [3]: recognized; Binding of serum SARS-green to linear peptides of protein N of SARS-CoV Urbani [4]: 0.2; Binding of serum SARS-yellow to linear peptides of protein N of SARS-CoV Urbani [4]: 0.5
